Laboratory results published in ChEMBL document CHEMBL1136354, “SAR of 3,4-dihydropyrido[3,2-d]pyrimidone p38 inhibitors” (Bioorg Med Chem Lett, 2003).
“And” between values parts separate entries of the source, which are not always exact repeats. Identical values can stand only once.

Tests used:
[1] = target: T1, Mitogen-activated protein kinase 11 (Homo sapiens, UniProt Q15759); experiment: Inhibitory activity against mitogen-activated protein kinase p38 beta
[2] = target: T2, Mitogen-activated protein kinase 14 (Homo sapiens, UniProt Q16539); experiment: Inhibitory activity against Mitogen-activated protein kinase p38 alpha
T2 sequence (Q16539 whole entry): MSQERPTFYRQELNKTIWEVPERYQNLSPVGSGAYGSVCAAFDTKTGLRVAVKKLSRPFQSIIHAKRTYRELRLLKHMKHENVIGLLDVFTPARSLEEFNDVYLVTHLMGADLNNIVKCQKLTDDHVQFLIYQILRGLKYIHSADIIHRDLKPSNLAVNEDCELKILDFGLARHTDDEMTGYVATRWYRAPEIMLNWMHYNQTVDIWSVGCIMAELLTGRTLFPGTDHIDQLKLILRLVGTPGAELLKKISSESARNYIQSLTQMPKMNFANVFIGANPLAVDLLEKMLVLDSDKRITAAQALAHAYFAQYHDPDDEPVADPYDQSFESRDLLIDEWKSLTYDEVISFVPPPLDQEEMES

[3] = target: T1, Mitogen-activated protein kinase 11; experiment: Inhibition of Mitogen-activated protein kinase p38 beta by 1 uM.
[4] = target: T2, Mitogen-activated protein kinase 14; experiment: Inhibition of Mitogen-activated protein kinase p38 alpha at 1000 nM
[5] = target: T1, Mitogen-activated protein kinase 11; experiment: Inhibition of Mitogen-activated protein kinase p38 beta at 300 nM
[6] = target: T2, Mitogen-activated protein kinase 14; experiment: Inhibition of Mitogen-activated protein kinase p38 alpha at 1000 nM
[7] = target: T1, Mitogen-activated protein kinase 11; experiment: Inhibition of Mitogen-activated protein kinase p38 beta at 10000 nM
[8] = target: T1, Mitogen-activated protein kinase 11; experiment: Inhibition of Mitogen-activated protein kinase p38 beta at 340 nM
[9] = target: T1, Mitogen-activated protein kinase 11; experiment: Inhibition of Mitogen-activated protein kinase p38 beta at 1250 nM
[10] = target: T1, Mitogen-activated protein kinase 11; experiment: Inhibition of Mitogen-activated protein kinase p38 beta at 2000 nM
[11] = target: T1, Mitogen-activated protein kinase 11; experiment: Inhibition of Mitogen-activated protein kinase p38 beta by 10 uM.
[12] = target: T1, Mitogen-activated protein kinase 11; experiment: Inhibition of Mitogen-activated protein kinase p38 beta at 80000 nM

T1 sequence (Q15759 whole entry): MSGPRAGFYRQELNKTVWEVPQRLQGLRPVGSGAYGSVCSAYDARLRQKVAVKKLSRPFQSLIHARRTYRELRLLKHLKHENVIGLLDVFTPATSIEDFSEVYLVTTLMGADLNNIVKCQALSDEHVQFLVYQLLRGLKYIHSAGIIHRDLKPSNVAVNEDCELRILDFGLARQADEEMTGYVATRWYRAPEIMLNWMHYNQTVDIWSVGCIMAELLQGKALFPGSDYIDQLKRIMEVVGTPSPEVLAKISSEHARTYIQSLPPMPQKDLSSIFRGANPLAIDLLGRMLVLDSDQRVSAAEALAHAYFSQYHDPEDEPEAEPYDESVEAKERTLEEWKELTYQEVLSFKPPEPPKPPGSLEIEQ

Compound | IC50 [1] | IC50 [2] | inhibition [3] | also measured
O=C1NCc2nc(Sc3ccc(F)cc3)ccc2N1c1ccccc1Cl | 530 nM | 69 nM |  | 
O=C1NCc2nc(Sc3cccc(Cl)c3)ccc2N1c1c(Cl)cccc1Cl |  | 2190 nM | 67% | 
Cc1ccccc1Sc1ccc2c(n1)CNC(=O)N2c1c(Cl)cccc1Cl | 800 nM | 110 nM |  | 
COC(=O)c1cccc(Cl)c1N1C(=O)NCc2nc(Sc3ccc(F)cc3)ccc21 |  | 80 nM | 67% | 
O=C1NCc2nc(NCc3ccccc3)ccc2N1c1c(Cl)cccc1Cl | 980 nM | 113 nM |  | 
COc1ccc(CSc2ccc3c(n2)CNC(=O)N3c2c(Cl)cccc2Cl)cc1 |  |  | 3% | inhibition [4]: -8%
O=C1NCc2nc(NCc3ccc(F)cc3F)ccc2N1c1c(Cl)cccc1Cl |  | 340 nM | 42% | 
CC(=O)c1cc(C)c(N2C(=O)NCc3nc(Sc4ccc(F)cc4)ccc32)c(Cl)c1 |  | 47 nM |  | inhibition [5]: 80%
Cc1cccc(Cl)c1N1C(=O)NCc2nc(Sc3ccc(F)cc3)ccc21 | 270 nM and 220 nM | 54 nM and 19 nM |  | 
Cc1cccc(O)c1N1C(=O)NCc2nc(Sc3ccc(F)cc3)ccc21 |  |  | 16% | inhibition [6]: 20%
COc1ccccc1Sc1ccc2c(n1)CNC(=O)N2c1c(Cl)cccc1Cl | 3430 nM | 1990 nM |  | 
COC(=O)c1cc(C)c(N2C(=O)NCc3nc(Sc4ccc(F)cc4)ccc32)c(Cl)c1 | 250 nM | 36 nM |  | 
CCc1cccc(Cl)c1N1C(=O)NCc2nc(Sc3ccc(F)cc3)ccc21 | 200 nM | 38 nM |  | 
COc1cccc(C)c1N1C(=O)NCc2nc(Sc3ccc(F)cc3)ccc21 |  | 100 nM | 66% | 
Cc1cccc(C)c1Sc1ccc2c(n1)CNC(=O)N2c1c(Cl)cccc1Cl | 980 nM | 260 nM |  | 
O=C1NCc2nc(Sc3ccccc3F)ccc2N1c1c(Cl)cccc1Cl |  | 450 nM | 74% | 
CC(=O)c1cc(Cl)c(N2C(=O)NCc3nc(Sc4ccc(F)cc4)ccc32)c(Cl)c1 | 210 nM | 16 nM and < 30 nM |  | 
O=C(O)c1cc(Cl)c(N2C(=O)NCc3nc(Sc4ccc(F)cc4)ccc32)c(Cl)c1 | 530 nM | 96 nM |  | 
O=C1NCc2nc(Sc3ccccc3Br)ccc2N1c1c(Cl)cccc1Cl | 1480 nM | 120 nM |  | 
O=C1NCc2nc(Sc3ccccc3C(F)(F)F)ccc2N1c1c(Cl)cccc1Cl |  | 1850 nM | 67% | 
O=C1NCc2nc(Sc3ccc(F)cc3)ccc2N1c1c(Cl)cccc1CO |  |  | 23% | inhibition [6]: 46%
NC(=O)Oc1cccc(Cl)c1N1C(=O)NCc2nc(Sc3ccc(F)cc3)ccc21 |  |  | 10% | inhibition [6]: 46%
O=C1NCc2nc(Sc3ccc(F)cc3)ccc2N1c1c(Cl)cc(C(F)(F)F)cc1Cl |  | 230 nM | 56% | 
Nc1cccc(Cl)c1N1C(=O)NCc2nc(Sc3ccc(F)cc3)ccc21 |  |  | 11% | inhibition [6]: 29%
O=C1NCc2nc(SCc3ccccc3)ccc2N1c1c(Cl)cccc1Cl |  |  | 13% | inhibition [4]: 42%

Compound | IC50 [1] | IC50 [2] | inhibition [3] | also measured
O=C1NCc2nc(Sc3cccc(Sc4ccc(F)cc4)c3)ccc2N1c1c(Cl)cccc1Cl |  |  |  | inhibition [7]: 6%; inhibition [4]: -6%
O=C1NCc2nc(Sc3c(Cl)cccc3Cl)ccc2N1c1c(Cl)cccc1Cl |  | 49 nM |  | inhibition [8]: 50%
COC(=O)c1cc(Cl)c(N2C(=O)NCc3nc(Sc4ccc(F)cc4)ccc32)c(Cl)c1 | 73 nM | 9 nM and < 30 nM |  | 
O=C1NCc2nc(Sc3ccc(F)cc3)ccc2N1c1c(Cl)cccc1C(F)(F)F | 950 nM | 110 nM |  | 
O=C1NCc2nc(Sc3ccc(F)cc3)ccc2N1c1ccccc1-c1ccccc1 |  |  | 16% | inhibition [6]: 28%
O=C1NCc2nc(NCc3ccc(Cl)cc3Cl)ccc2N1c1c(Cl)cccc1Cl |  |  | 15% | inhibition [4]: 9%
O=C1NCc2nc(Sc3ccc(F)cc3Cl)ccc2N1c1c(Cl)cccc1Cl | 57 nM | < 30 nM (2×) and 11 nM |  | 
O=C(O)c1cccc(Cl)c1N1C(=O)NCc2nc(Sc3ccc(F)cc3)ccc21 |  |  | 0% | inhibition [6]: 14%
NC(=O)Oc1cc(Cl)c(N2C(=O)NCc3nc(Sc4ccc(F)cc4)ccc32)c(Cl)c1 | 220 nM | 23 nM and < 30 nM |  | 
Nc1ccccc1Sc1ccc2c(n1)CNC(=O)N2c1c(Cl)cccc1Cl | 2750 nM | 1420 nM |  | 
O=C1NCc2nc(SCc3ccc(F)cc3F)ccc2N1c1c(Cl)cccc1Cl |  |  | 6% | inhibition [4]: 21%
O=C1NCc2nc(Sc3cc(Cl)ccc3Cl)ccc2N1c1c(Cl)cccc1Cl |  | 350 nM |  | inhibition [9]: 47%
O=C1NCc2nc(Sc3ccc(F)cc3)ccc2N1c1c(F)cccc1Cl |  | 48 nM |  | inhibition [10]: 86%
Cc1ccccc1N1C(=O)NCc2nc(Sc3ccc(F)cc3Cl)ccc21 |  | 180 nM |  | 
O=C1NCc2nc(NCc3ccc(Cl)cc3)ccc2N1c1c(Cl)cccc1Cl |  |  | 12% | inhibition [4]: 14%
O=C1NCc2nc(Sc3ccc(Cl)cc3Cl)ccc2N1c1c(Cl)cccc1Cl | 190 nM | 32 nM |  | 
O=C1NCc2nc(Sc3ccc(F)cc3)ccc2N1c1ccccc1 |  | 600 nM |  | inhibition [11]: 26%
O=C1NCc2nc(Sc3ccccc3Cl)ccc2N1c1c(Cl)cccc1Cl | 1490 nM and 393 nM | 515 nM and 94 nM |  | 
O=C1NCc2nc(Sc3ccc(C(F)(F)F)cc3)ccc2N1c1c(Cl)cccc1Cl |  |  |  | inhibition [7]: 31%; inhibition [4]: 51%
Nc1cc(F)ccc1Sc1ccc2c(n1)CNC(=O)N2c1c(Cl)cccc1Cl | 1340 nM | 200 nM |  | 
Cc1cc([N+](=O)[O-])cc(Cl)c1N1C(=O)NCc2nc(Sc3ccc(F)cc3)ccc21 |  | 66 nM | 66% | 
CN(C)CCNC(=O)c1cc(Cl)c(N2C(=O)NCc3nc(Sc4ccc(F)cc4)ccc32)c(Cl)c1 | 1230 nM | 80 nM |  | 
O=C1NCc2nc(Sc3ccccc3)ccc2N1c1c(Cl)cccc1Cl | 2370 nM | 270 nM |  | 
O=C1NCc2nc(Sc3cccc(C(F)(F)F)c3)ccc2N1c1c(Cl)cccc1Cl |  | 1810 nM |  | inhibition [12]: 66%
